Molecular target: T1, Arabidopsis HPPD (SEQ ID NO:53), wild-type (Arabidopsis thaliana, UniProt P93836)
T1 construct: His6 (N); made in house; host or cells: E. coli BL21 (DE3)
T1 sequence (P93836 1-445): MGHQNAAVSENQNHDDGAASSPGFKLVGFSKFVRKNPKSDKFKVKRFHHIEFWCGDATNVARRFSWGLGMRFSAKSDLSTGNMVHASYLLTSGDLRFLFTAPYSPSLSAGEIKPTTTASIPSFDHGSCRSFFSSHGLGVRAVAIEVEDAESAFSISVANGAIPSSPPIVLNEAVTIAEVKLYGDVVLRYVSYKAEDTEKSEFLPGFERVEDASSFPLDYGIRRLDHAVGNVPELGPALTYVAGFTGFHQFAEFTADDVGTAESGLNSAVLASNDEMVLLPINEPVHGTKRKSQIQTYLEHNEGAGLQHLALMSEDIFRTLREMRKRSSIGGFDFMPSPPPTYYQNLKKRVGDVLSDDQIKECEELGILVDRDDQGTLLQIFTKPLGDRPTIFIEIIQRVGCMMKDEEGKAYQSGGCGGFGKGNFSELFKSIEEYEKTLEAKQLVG
Assay: HPPD activity assay (HGA by HPLC), wild-type enzyme characterization
Type: biochemical
Description: HPPD produces homogentisic acid and CO2 from 4-hydroxyphenylpyruvate (4-HPP) and 02. The activity assay for HPPD is based on the analysis of homogentisic acid by reversed phase HPLC. The assay mixture can contain 150 mM potassium phosphate buffer pH 7.0, 50 mM L-ascorbic acid, 100 μM Catalase (Sigma-Aldrich), 1 μM FeSO4 and 0.2 units of purified HPPD enzyme in a total volume of 505 μl. 1 unit is defined as the amount of enzyme that is required to produce 1 nmol of HGA per minute at 20° C.
After a preincubation of 30 min the reaction is started by adding 4-HPP to a final concentration of 0.05 mM. The reaction is allowed to proceed for 45 min at room temperature. The reaction is stopped by the addition of 50 μl of 4.5 M phosphoric acid. The sample is filtered using a […] pore size PVDF filtration device.
5 μl of the cleared sample is analyzed on an UPLC HSS T3 column (particle size 1.8 μm, dimensions 2.1×50 mm; Waters) by isocratic elution using 90% 20 mM NaH2PO4 pH 2.2, 10% methanol (v/v).
HGA is detected electrochemically at 750 mV (mode: DC; polarity: positive) and quantified by integrating peak areas (Empower software; Waters).
Inhibitors are dissolved in DMSO (dimethylsulfoxide) to a concentration of 0.5 mM. From this stock solution serial five-fold dilutions are prepared in DMSO, which are used in the assay. The respective inhibitor solution accounts for 1% of the assay volume. […] Activities are normalized by setting the uninhibited enzyme activity to 100%. IC50 values are calculated using non-linear regression.
Using methods which are described in the above examples or well known in the art, purified, recombinant wild-type HPPD enzymes are characterized with respect to their kinetic properties and sensitivity towards HPPD inhibiting herbicides. Apparent michaelis constants (Km) and maximal reaction velocities (Vmax) are calculated by non-linear regression with the software GraphPad Prism 5 (GraphPad Software, La Jolla, USA) using a substrate inhibition model. […] Weighted means (by standard error) of Km and IC50 values are calculated from at least three independent experiments.
Field performance of the HPPD enzyme, which is used as a herbicide tolerance trait, may depend not only on its lack of sensitivity towards HPPD inhibiting herbicides but also on its activity. To assess the potential performance of a herbicide tolerance trait a tolerance index (TI) is calculated using the following formula: […]
Easy comparison and ranking of each trait is enabled by normalizing tolerance indexes on Arabidopsis wild-type HPPD.

Question: How did the Ki turn out when `COc1no[nH]/c1=N/C(=O)c1ccc2c(c1Cl)S(=O)(=O)CCC2(C)C` [Inhibitor 1, (NE)-8-chloro-N-(4-methoxy-1,2,5-oxadiazol-3-ylidene)-4,4-dimethyl-1,1-dioxo-2,3-dihydrothiochromene-7-carboxamide] was run?
Answer: 0.019 µM

Question: And the “TI Inhibitor 1 (normalized tolerance index)” value (Table 12, Arabidopsis HPPD, normalized to reference SEQ ID NO:53)?
Answer: 1

Question: What about the “TI Inhibitor 1 (normalized tolerance index)” value (Table 15, Arabidopsis HPPD variant Wild-type) of the same compound?
Answer: 1

From patent US20160102317A1, “PLANTS HAVING INCREASED TOLERANCE TO HERBICIDES” (BASF SE, priority 2013, published 2016)
